In patent US6506772B1, “Substituted [1,2,4]triazolo[1,5a]pyridine derivatives with activity as adenosine receptor ligands” (Hoffmann-La Roche Inc., priority 2000, dated 2003):

Columns and labels:
HA1 adenosine receptor = target: T1, HA1 adenosine receptor (Homo sapiens, UniProt P30542); test: Human adenosine A1 receptor affinity (Ki hA1); format: binding; conditions: affinity to human adenosine A1 receptor
T1 sequence (P30542 1-326): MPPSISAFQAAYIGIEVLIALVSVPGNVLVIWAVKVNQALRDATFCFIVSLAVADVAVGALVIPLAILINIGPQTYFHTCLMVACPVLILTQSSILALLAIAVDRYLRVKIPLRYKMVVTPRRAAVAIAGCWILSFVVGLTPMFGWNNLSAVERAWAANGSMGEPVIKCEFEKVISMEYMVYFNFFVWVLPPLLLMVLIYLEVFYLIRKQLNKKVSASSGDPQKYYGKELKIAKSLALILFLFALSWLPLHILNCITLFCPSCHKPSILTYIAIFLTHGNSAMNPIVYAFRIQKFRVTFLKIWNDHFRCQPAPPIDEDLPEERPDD

[1] = target: T2, human adenosine A2A receptor (Homo sapiens, UniProt P29274); test: Human adenosine A2A receptor [3H]-SCH-58261 binding assay; conditions: for Ki: affinity to human adenosine A2A receptor, read-out: Ki HA2A; for selectivity (A1/A2a): calculated ratio of the affinity to the HA1 receptor to the HA2a receptor
T2 construct: expressed in transfected cells; host or cells: CHO cells, Semliki Forest virus expression system; membrane preparation
T2 sequence (P29274 whole entry): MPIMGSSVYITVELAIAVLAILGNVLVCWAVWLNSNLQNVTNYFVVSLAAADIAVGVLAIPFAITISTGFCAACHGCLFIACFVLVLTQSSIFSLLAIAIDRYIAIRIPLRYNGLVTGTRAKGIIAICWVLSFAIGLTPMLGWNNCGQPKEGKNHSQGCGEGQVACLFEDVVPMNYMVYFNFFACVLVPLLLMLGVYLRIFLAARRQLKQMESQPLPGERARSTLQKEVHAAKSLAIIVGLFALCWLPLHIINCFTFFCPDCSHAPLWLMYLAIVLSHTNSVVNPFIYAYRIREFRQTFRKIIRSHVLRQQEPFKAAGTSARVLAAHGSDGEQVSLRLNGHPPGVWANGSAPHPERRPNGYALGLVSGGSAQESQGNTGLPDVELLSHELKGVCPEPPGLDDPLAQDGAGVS

Structure (SMILES) | Ki (HA1 adenosine receptor) [nM] | Ki [1] [nM] | selectivity (A1/A2a) [1]
CCN(Cc1ccncc1)C(=O)c1cc(N)n2nc(-c3nccs3)nc2c1 [Example 325, 5-Amino-2-thiazol-2-yl-[1,2,4]triazolo[1,5-a]pyridine-7-carboxylic acid ethyl-pyridin-4-ylmethyl-amide] | 1330 | 37.6 | 35.2
Nc1cc(C(=O)N(Cc2ccccc2)Cc2ccccc2)cc2nc(-c3nccs3)nn12 [Example 327, 5-Amino-2-thiazol-2-yl-[1,2,4]triazolo[1,5-a]pyridine-7-carboxylic acid dibenzylamide] | 128 | 5.8 | 22.2
CCNC(=O)c1cc(N)n2nc(-c3nccs3)nc2c1 [Example 328, 5-Amino-2-thiazol-2-yl-[1,2,4]triazolo[1,5-a]pyridine-7-carboxylic acid ethylamide] | 1240 | 31.7 | 39.1
CC1CCCCN1C(=O)c1cc(N)n2nc(-c3nccs3)nc2c1 (stereo not drawn) [Example 329, (5-Amino-2-thiazol-2-yl-[1,2,4]triazolo[1,5-a]pyridin-7-yl)-(2-methyl-piperidin-1-yl)-methanone] | 1980 | 47.3 | 41.9
CC1CCN(C(=O)c2cc(N)n3nc(-c4nccs4)nc3c2)CC1 [Example 330, (5-Amino-2-thiazol-2-yl-[1,2,4]triazolo[1,5-a]pyridin-7-yl)-(4-methyl-piperidin-1-yl)-methanone] | 2780 | 64.4 | 43.1
CCCN(CCC)C(=O)c1cc(N)n2nc(-c3nccs3)nc2c1 [Example 331, 5-Amino-2-thiazol-2-yl-[1,2,4]triazolo[1,5-a]pyridine-7-carboxylic acid dipropylamide] | 2700 | 87.5 | 30.9
Nc1cc(C(=O)N2CCCCCCC2)cc2nc(-c3nccs3)nn12 [Example 332, (5-Amino-2-thiazol-2-yl-[1,2,4]triazolo[1,5-a]pyridin-7-yl)-azocan-1-yl-methanone] | 844 | 17.2 | 49.1
CC1CC(C)CN(C(=O)c2cc(N)n3nc(-c4nccs4)nc3c2)C1 (stereo not drawn) [Example 333, (5-Amino-2-thiazol-2-yl-[1,2,4]triazolo[1,5-a]pyridin-7-yl)-(3,5-dimethyl-piperidin-1-yl)-methanone] | 1730 | 36.1 | 47.9
CCCCN(CCC)C(=O)c1cc(N)n2nc(-c3nccs3)nc2c1 [Example 334, 5-Amino-2-thiazol-2-yl-[1,2,4]triazolo[1,5-a]pyridine-7-carboxylic acid butyl-propyl-amide] | 1790 | 98 | 18.3
CCNC(=O)c1cc(N)n2nc(-c3ccc(Br)o3)nc2c1 [Example 335, 5-Amino-2-(5-bromo-furan-2-yl)-[1,2,4]triazolo[1,5-a]pyridine-7-carboxylic acid ethylamide] | 355 | 25.2 | 14.1
CC1CCN(C(=O)c2cc(N)n3nc(-c4ccc(Br)o4)nc3c2)CC1 [Example 337, [5-Amino-2-(5-bromo-furan-2-yl)-[1,2,4]triazolo[1,5-a]pyridin-7-yl]-(4-methyl-piperidin-1-yl)-methanone] | 183 | 6.4 | 28.6
CCCN(CCC)C(=O)c1cc(N)n2nc(-c3ccc(Br)o3)nc2c1 [Example 338, 5-Amino-2-(5-bromo-furan-2-yl)-[1,2,4]triazolo[1,5-a]pyridine-7-carboxylic acid dipropylamide] | 200 | 3.1 | 64.4
Nc1cc(C(=O)N2CCCCCCC2)cc2nc(-c3ccc(Br)o3)nn12 [Example 339, [5-Amino-2-(5-bromo-furan-2-yl)-[1,2,4]triazolo[1,5-a]pyridin-7-yl]-azocan-1-yl-methanone] | 37 | 1.3 | 28.5
CN(C(=O)c1cc(N)n2nc(-c3ccc(Br)o3)nc2c1)C1CCCCC1 [Example 340, 5-Amino-2-(5-bromo-furan-2-yl)-[1,2,4]triazolo[1,5-a]pyridine-7-carboxylic acid cyclohexyl-methyl-amide] | 77.3 | 2.6 | 29.7

Results, then the compound that gave them:

Ki (HA1 adenosine receptor) [nM] | Ki [1] [nM] | selectivity (A1/A2a) [1] | Structure (SMILES)
120 | 1.7 | 70.3 | CC1CC(C)CN(C(=O)c2cc(N)n3nc(-c4ccc(Br)o4)nc3c2)C1 (stereo not drawn) [Example 341, [5-Amino-2-(5-bromo-furan-2-yl)-[1,2,4]triazolo[1,5-a]pyridin-7-yl]-(3,5-dimethyl-piperidin-1-yl)-methanone]
142 | 3 | 47.3 | CCCCN(CCC)C(=O)c1cc(N)n2nc(-c3ccc(Br)o3)nc2c1 [Example 342, 5-Amino-2-(5-bromo-furan-2-yl)-[1,2,4]triazolo[1,5-a]pyridine-7-carboxylic acid butyl-propyl-amide]
42.2 | 2.7 | 15.6 | CN(Cc1ccccc1)C(=O)c1cc(N)n2nc(-c3ccc(Br)o3)nc2c1 [Example 343, 5-Amino-2-(5-bromo-furan-2-yl)-[1,2,4]triazolo[1,5-a]pyridine-7-carboxylic acid benzyl-methyl-amide]
71.7 | 1.6 | 44.8 | C=CCN(C(=O)c1cc(N)n2nc(-c3ccc(Br)o3)nc2c1)C1CCCC1 [Example 344, 5-Amino-2-(5-bromo-furan-2-yl)-[1,2,4]triazolo[1,5-a]pyridine-7-carboxylic acid allyl-cyclopentyl-amide]
62.1 | 2 | 31.1 | CCN(C(=O)c1cc(N)n2nc(-c3ccc(Br)o3)nc2c1)C1CCCCC1 [Example 345, 5-Amino-2-(5-bromo-furan-2-yl)-[1,2,4]triazolo[1,5-a]pyridine-7-carboxylic acid cyclohexyl-ethyl-amide]
102 | 2.4 | 42.7 | CC(C)CN(CC(C)C)C(=O)c1cc(N)n2nc(-c3ccc(Br)o3)nc2c1 [Example 346, 5-Amino-2-(5-bromo-furan-2-yl)-[1,2,4]triazolo[1,5-a]pyridine-7-carboxylic acid diisobutylamide]
236 | 13.3 | 17.7 | Nc1cc(C(=O)N2CCc3ccccc3C2)cc2nc(-c3ccc(Br)o3)nn12 [Example 347, [5-Amino-2-(5-bromo-furan-2-yl)-[1,2,4]triazolo[1,5-a]pyridin-7-yl]-(3,4-dihydro-1H-isoquinolin-2-yl)-methanone]
67 | 2.6 | 25.8 | C=CCN(C(=O)c1cc(N)n2nc(-c3ccc(Br)o3)nc2c1)C1CCCCC1 [Example 348, 5-Amino-2-(5-bromo-furan-2-yl)-[1,2,4]triazolo[1,5-a]pyridine-7-carboxylic acid allyl-cyclohexyl-amide]
64.7 | 2.9 | 22.3 | Nc1cc(C(=O)N2CCCC3CCCCC32)cc2nc(-c3ccc(Br)o3)nn12 (stereo not drawn) [Example 349, [5-Amino-2-(5-bromo-furan-2-yl)-[1,2,4]triazolo[1,5-a]pyridin-7-yl]-(octoahydro-quinolin-1-yl)-methanone]
